Source: patent publication US8541455B2, “Derivatives of 2-pyridin-2-yl-pyrazol-3(2H)-one, preparation and therapeutic use thereof as HIF activators” (Sanofi, priority 2008, dated 2013)
Where a name gives a salt, the structure may show the parent alone.

What was measured:
[1] = tested on: EPO secretion by Hep3B cells; assay: Measurement of the secretion of EPO by Hep3B hepatocytes (ELISA on supernatant); format: cell-based; details: Homo sapiens, 18 hours incubation under normoxia, EPO in supernatant, 50% of the maximum response of this same compound
From the text: (§1) 2. Measurement of the Secretion of VEGF and EPO by Hep3B Hepatocytes 2.1. Object
(§2) HIF is a transcription factor involved in the adaptation of cells to hypoxia. Since the genes activated by HIF are involved in the adaptive response of cells to hypoxia and of tissues to ischaemia, the object is to identify and characterize compounds that stabilize HIF1-alpha in cells in order to amplify or mimic its beneficial effect. HIF1-alpha was identified following the analysis of the EPO gene promoter, which makes this protein one of the first markers of HIF1-alpha activation. Moreover, VEGF is also identified in the literature as one of the main markers of HIF activation. It is for this reason that measurement of these two proteins was selected for characterizing compounds that are HIF activators in Hep3B cells.
(§3) The object was thus to develop a sensitive screening test, adaptable to 96-well plates, for directly measuring the amount of VEGF and EPO in the supernatant of the Hep3B cells (cells derived from a human hepatocarcinoma) in response to the potential HIF activators.
(§4) The test is an ELISA test for measuring VEGF and EPO in the supernatant of Hep3B cells treated under hypoxia or with deferoxamine as controls or with the potential HIF activators. The test was adapted to a 96-well plate, allowing greater compound screening capacity.
(§5) • 2.3.1 Experiment Plan • 1) Inoculation of the cells on D0 • 2) Adherence for 6 hours under normoxia • 3) Preparation and addition of the products (Biomek 2000 and FX) • 4) Incubation under normoxia for 18 hours • 5) EPO and VEGF assay in the supernatant on D+1 • 2.3.2 Inoculation of the Cells
(§6) The cells are subcultured into 100 μl of culture medium (10% FCS) in black, opaque-bottomed 96-well plates (reference Costar 3916) at 30 000 cells/well, with Multidrop. • 2.3.3 Treatment of the Cells
(§7) The test products are prepared at 10^−2 M in 100% DMSO and then diluted to […] in medium containing 0.1% FCS (6 μl in 194 μl of MEM). 200 μl of each compound are deposited in column 12 of a 96-well plate. Dilution ranges from […] to 3×10^−8M are prepared with Biomek 2000 (programme: range of 9 points in series). 100 μl of MEM 0.1% FCS and Deferoxamine 5×10^−3M are added as controls to column 3 and, respectively, to wells A,B,C,D and wells E,F,G,H • DL Plate Distribution in Cell Plates
(§8) The medium of the cells inoculated the day before into 96-well plates is changed for 90 μl of medium containing 0.1% FCS and 10 μl are distributed with FX 96 from the 96-well DL plates to the cell plates.
(§9) The cell plates thus treated are placed for 18 hours in an incubator at 37° C. (ambient O2, 6% CO2).
(§10) The supernatants (80 μl) of the Hep3B cells in the 96-well plates treated with the potential HIF activators are recovered with a multichannel pipette for simultaneous assay of the VEGF and the EPO by ELISA according to the supplier's instructions (Kit EPO Mesoscale (ref K15122B-2)).
(§11) The activating activity of a compound with respect to HIF is given by the concentration that produces 50% of the maximum response of this same compound in Table IV below.

HIF1-alpha = assay: Measurement of the stabilization of HIF1-alpha in HEKEA cells (beta-galactosidase complementation, luminescence); format: cell-based, human; details: HEKEA_HIF1-alphaPLBL cells, 6 hours incubation under normoxia; concentration that produces 50% of the maximum response of this same compound
From the text: Furthermore, a subject of the invention is also a uniform test process for the direct measurement by beta-galactosidase complementation of the amount of HIF1-alpha protein in the nucleus of cells, preferably HEK cells, after treating the said cells with one or more test compounds, which consists in: • (a) inoculating, preferably in 384-well plates, the said cells in a suitable culture medium, preferably 1% foetal calf serum (abbreviated as FCS); • (b) adding the test compound(s) at a suitable concentration in a suitable solvent to the cells previously inoculated in the said culture medium; preferably the test compounds are diluted in 0.1% FCS; • (c) incubating the said cells thus prepared in an indicator at about 37° C., advantageously for about 6 hours; • (d) lysing the cells with a lysis buffer containing a chemiluminescent substrate for beta-galactosidase; • (e) incubating in the absence of light, before reading and measuring the luminescence, which is a function of the beta-galactosidase activity.
Many tests exist describing the indirect measurement of the activity of HIF via reporter gene systems (HRE-luciferase) or via the measurement of HIF-induced proteins (for example VEGF or EPO). Furthermore, the only tests that allow direct measurement of the amount of HIF1-alpha protein in cells are tests using antibodies, for instance Western blotting comprising phases of cell extraction (total lysates or nuclear extracts) that are consuming in terms of cells and time, thus limiting the compound screening capacity. The object was thus to develop a sensitive screening test, adaptable to 384-well plates, for directly measuring the amount of HIF1-alpha protein in the nucleus of cells. This test was established in HEK cells ([…]).
The test is a cell test based on the principle of enzyme complementation, the enzyme used herein being beta-galactosidase. HEKEA cells are HEK cells stably expressing, and restricted in their nucleus, mutant beta-galactosidase (omega fragment, also known as EA) (line sold by DiscoverX). This construct makes it possible to obtain beta-galactosidase activity only when the protein comprising the Prolabel complementation fragment has migrated into the nucleus.
The protein of interest comprising the Prolabel fragment is in this case an HIF1-alpha or HIF1-alpha mutated at the two prolines 402 and 564 replaced with alanines, is C-terminal fused via molecular biology (DiscoverX vector sold by Clontech) with the small complementation peptide fragment (Prolabel or ED, about 4 kDa). The vector coding for the chimeric protein HIF1-alpha_Prolabel is then transfected into HEKEA cells to obtain stable clones (HEKEA_HIF1-alphaPLBL).
The amount of C-terminal Prolabel-“labelled” HIF1-alpha protein obtained after treating the cells to hypoxia or compounds that are potentially HIF activators is measured by adding to the cells a lysis buffer containing a chemiluminescent substrate for beta-galactosidase.
The measurement of the beta-galactosidase activity will be proportional to the amount of Prolabel and thus of HIF1-alpha that has migrated into the nucleus of the cells.
• 1.3.1 Experiment Plan • 1) Inoculation of the cells on D0 • 2) Adherence for 24 hours under normoxia • 3) Preparation and addition of the products (Biomek 2000 and FX) on D+1 • 4) Incubation under normoxia for 6 hours • 5) Reading of the plates (by luminescence)
The cells are inoculated with Multidrop in white, opaque-bottomed 384-well plates (Greiner ref 3704), in 30 μl of culture medium (1% FCS) at 10 000 cells/well (cell plate). • 1.3.3 Treatment • Preparation of the Dilution Plate (DL Plate)
The test products are prepared at 3×10^−2 M in 100% DMSO and then diluted to 3×10^−4 M in medium containing 0.1% FCS (10 μl in 990 μl of MEM). They are then deposited by hand into column 12 of a round-bottomed 96-well plate (200 μl of each compound) known as the dilution plate (dl). […]

[2] = tested on: VEGF secretion by Hep3B cells; assay: Measurement of the secretion of VEGF by Hep3B hepatocytes (ELISA on supernatant); format: cell-based; details: Homo sapiens, 18 hours incubation under normoxia, VEGF in supernatant, 50% of the maximum response of this same compound
From the text: as §1, §2, §3, §4, §5, §6, §7, §8, §9, §10, §11

CCN(c1ccccc1)S(=O)(=O)c1ccc(-n2[nH]c(C)c(CCc3ccccc3)c2=O)nc1 [Compound 74, N-ethyl-6-[3-methyl-5-oxo-4-(2-phenylethyl)-2,5-dihydro-1H-pyrazol-1-yl]-N-phenylpyridine-3-sulfonamide]
EC50 [1]: 300 nM
melting point: 158 °C
EC50 (HIF1-alpha): 3700 nM

CCN(c1ccccc1)S(=O)(=O)c1ccc(-n2[nH]c(C)c(Cc3c(F)cccc3Cl)c2=O)nc1 [Compound 20, 6-[4-(2-chloro-6-fluorobenzyl)-3-methyl-5-oxo-2,5-dihydro-1H-pyrazol-1-yl]-N-ethyl-N-phenylpyridine-3-sulfonamide]
EC50 [1]: 1000 nM
EC50 [2]: 1100 nM

CCN(c1ccccc1)S(=O)(=O)c1ccc(-n2[nH]c(C(F)(F)F)c(Cc3ccccc3)c2=O)nc1 [Compound 83, 6-(4-benzyl-5-oxo-3-trifluoromethyl-2,5-dihydro-1H-pyrazol-1-yl)-N-ethyl-N-phenylpyridine-3-sulfonamide]
EC50 [1]: 1400 nM
melting point: 186 °C
EC50 [2]: 1300 nM
EC50 (HIF1-alpha): 3300 nM

CCN(c1ccccc1)S(=O)(=O)c1ccc(-n2[nH]c(C)c(Cc3cccc(OCCN(C)C)c3)c2=O)nc1 [Compound 56, 6-(4-{3-[2-(dimethylamino)ethoxy]benzyl}-3-methyl-5-oxo-2,5-dihydro-1H-pyrazol-1-yl)-N-ethyl-N-phenylpyridine-3-sulfonamide hydrochloride]
EC50 [1]: 2000 nM
EC50 [2]: 2500 nM
EC50 (HIF1-alpha): 2100 nM

CC(C)(C)NS(=O)(=O)c1ccc(-n2[nH]cc(Cc3cccnc3)c2=O)nc1 [Compound 98B, N-tert-butyl-6-[5-oxo-4-(pyridin-3-ylmethyl)-2,5-dihydro-1H-pyrazol-1-yl]pyridine-3-sulfonamide hydrochloride]
EC50 (HIF1-alpha): 2500 nM

CCN(c1ccccc1)S(=O)(=O)c1ccc(-n2[nH]c(C)c(Cc3cccc(OCCOC)c3)c2=O)nc1 [Compound 38, N-ethyl-6-{4-[3-(2-methoxyethoxy)benzyl]-3-methyl-5-oxo-2,5-dihydro-1H-pyrazol-1-yl}-N-phenylpyridine-3-sulfonamide]
EC50 [1]: 1000 nM
melting point: 126 °C
EC50 (HIF1-alpha): 4700 nM

CCN(c1ccccc1)S(=O)(=O)c1ccc(-n2[nH]c(C)c(Cc3cccc(N(C)C)c3)c2=O)nc1 [Compound 53, 6-{4-[3-(dimethylamino)benzyl]-3-methyl-5-oxo-2,5-dihydro-1H-pyrazol-1-yl}-N-ethyl-N-phenylpyridine-3-sulfonamide]
EC50 [1]: 900 nM
melting point: 122 °C
EC50 [2]: 3200 nM
EC50 (HIF1-alpha): 2600 nM

CCN(c1ccccc1)S(=O)(=O)c1ccc(-n2[nH]c(C)c(Cc3ccc(Cl)cc3Cl)c2=O)nc1 [Compound 14]
EC50 [1]: 300 nM
melting point: 178 °C
EC50 (HIF1-alpha): 3800 nM

CCN(c1ccccc1)S(=O)(=O)c1ccc(-n2[nH]c(C)c(C3(c4ccccc4)CC3)c2=O)nc1 [Compound 80, N-ethyl-6-[3-methyl-5-oxo-4-(1-phenylcyclopropyl)-2,5-dihydro-1H-pyrazol-1-yl]-N-phenylpyridine-3-sulfonamide]
EC50 [1]: 400 nM
melting point: 146 °C
EC50 [2]: 900 nM
EC50 (HIF1-alpha): 3300 nM

CCN(c1ccccc1)S(=O)(=O)c1ccc(-n2[nH]c(COC)c(Cc3ccccc3)c2=O)nc1 [Compound 82]
EC50 [1]: 1000 nM
melting point: 158 °C
EC50 [2]: 1200 nM
EC50 (HIF1-alpha): 1500 nM

CCN(c1ccccc1)S(=O)(=O)c1ccc(-n2[nH]c(CC(C)C)c(Cc3ccccc3)c2=O)nc1 [Compound 88]
EC50 [1]: 300 nM
melting point: 138 °C
EC50 [2]: 400 nM
EC50 (HIF1-alpha): 880 nM

CCN(c1ccccc1)S(=O)(=O)c1ccc(-n2[nH]c(C)c(CCCc3ccccc3)c2=O)nc1 [Compound 92]
EC50 [1]: 500 nM
melting point: 158 °C
EC50 [2]: 500 nM
EC50 (HIF1-alpha): 860 nM

CCN(c1ccccc1)S(=O)(=O)c1ccc(-n2[nH]c(C)c(CCc3ccccn3)c2=O)nc1 [Compound 85]
EC50 [1]: 2500 nM
melting point: 188 °C
EC50 [2]: 2500 nM
EC50 (HIF1-alpha): 1800 nM

CCN(c1ccccc1)S(=O)(=O)c1ccc(-n2[nH]cc(Cc3ccccc3)c2=O)nc1 [Compound 93, 6-(4-benzyl-5-oxo-2,5-dihydro-1H-pyrazol-1-yl)-N-ethyl-N-phenylpyridine-3-sulfonamide]
EC50 [1]: 400 nM
EC50 [2]: 400 nM
EC50 (HIF1-alpha): 350 nM

CCN(c1ccccc1)S(=O)(=O)c1ccc(-n2[nH]c(C)c(Cc3cccnc3)c2=O)nc1 [Compound 43]
EC50 [1]: 1500 nM
EC50 [2]: 1700 nM
EC50 (HIF1-alpha): 3100 nM

CCN(c1ccccc1)S(=O)(=O)c1ccc(-n2[nH]c(C)c(Cc3ncccc3OC)c2=O)nc1 [Compound 81]
EC50 [1]: 1200 nM
melting point: 130 °C
EC50 [2]: 1900 nM
EC50 (HIF1-alpha): 7500 nM

CCN(c1ccccc1)S(=O)(=O)c1ccc(-n2[nH]c(C)c(Cc3ccc(S(C)(=O)=O)cc3)c2=O)nc1 [Compound 39]
EC50 [1]: 2000 nM
melting point: 224 °C
EC50 (HIF1-alpha): 1800 nM

CCN(c1ccccc1)S(=O)(=O)c1ccc(-n2[nH]c(C)c(Cc3cccc(COC)c3)c2=O)nc1 [Compound 34, N-ethyl-6-{4-[3-(methoxymethyl)benzyl]-3-methyl-5-oxo-2,5-dihydro-1H-pyrazol-1-yl}-N-phenylpyridine-3-sulfonamide]
EC50 [1]: 900 nM
